In patent publication US20250002471A1 (Gilead Sciences, Inc., priority 2020, published 2025):

Experiments:
TLR7 = biological target: T1, TLR7 (Homo sapiens, UniProt Q9NYK1); assay: Human PBMC cell-based assay, TLR7 agonist GS-986 stimulation, cytokine (IL-6 and IFNα) readout; conditions: human PBMCs, GS-986 400 nM, 6 hours; Table 26; read-out: TLR-7 EC50
T1 construct: lymphocytes, monocytes and dendritic cells that express TLR7, TLR8 and TLR9; endogenous in cells; host or cells: human PBMCs from healthy donors
T1 sequence (Q9NYK1 27-1049): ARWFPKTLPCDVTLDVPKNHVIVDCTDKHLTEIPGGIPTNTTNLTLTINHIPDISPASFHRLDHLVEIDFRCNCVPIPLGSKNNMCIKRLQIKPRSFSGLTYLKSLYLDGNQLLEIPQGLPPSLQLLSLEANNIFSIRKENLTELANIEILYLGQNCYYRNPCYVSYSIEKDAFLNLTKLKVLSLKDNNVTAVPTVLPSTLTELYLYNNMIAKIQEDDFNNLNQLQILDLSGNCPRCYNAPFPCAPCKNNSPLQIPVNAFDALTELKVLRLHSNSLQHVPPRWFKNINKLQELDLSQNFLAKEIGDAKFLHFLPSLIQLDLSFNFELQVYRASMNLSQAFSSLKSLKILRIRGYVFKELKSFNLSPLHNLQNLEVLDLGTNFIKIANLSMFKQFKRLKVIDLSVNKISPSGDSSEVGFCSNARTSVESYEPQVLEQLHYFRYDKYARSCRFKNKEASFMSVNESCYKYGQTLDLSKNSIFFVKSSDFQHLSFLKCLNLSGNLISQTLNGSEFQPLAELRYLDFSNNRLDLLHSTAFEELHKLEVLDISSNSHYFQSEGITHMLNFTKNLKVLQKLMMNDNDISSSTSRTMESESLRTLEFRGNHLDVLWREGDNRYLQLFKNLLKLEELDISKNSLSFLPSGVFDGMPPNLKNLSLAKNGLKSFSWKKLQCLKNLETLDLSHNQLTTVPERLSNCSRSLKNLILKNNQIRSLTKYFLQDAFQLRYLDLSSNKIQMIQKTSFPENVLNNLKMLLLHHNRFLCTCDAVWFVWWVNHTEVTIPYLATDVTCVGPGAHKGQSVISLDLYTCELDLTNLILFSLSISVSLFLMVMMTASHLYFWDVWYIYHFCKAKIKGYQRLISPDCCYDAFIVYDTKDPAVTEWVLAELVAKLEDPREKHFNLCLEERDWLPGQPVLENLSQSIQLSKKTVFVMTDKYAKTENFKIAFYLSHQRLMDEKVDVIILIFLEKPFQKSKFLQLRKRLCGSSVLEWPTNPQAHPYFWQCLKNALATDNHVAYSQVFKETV
Method in brief: (§1)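 Readout is IL-6 and IFNα in supernatants, quantified by electrochemiluminescence, with EC50 from a sigmoidal fit of cytokine versus concentration. Healthy-donor human PBMCs, 100,000 per well, got antagonist for 1 h at 37 °C, then 6 h agonist exposure: TLR7 via GS-986 at 400 nM final, TLR9 via ODN-2216 at 3 μM final.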

TLR9 = biological target: T2, TLR9 (Homo sapiens, UniProt Q9NR96); assay: Human PBMC cell-based assay, TLR9 agonist ODN-2216 stimulation, cytokine (IL-6 and IFNα) readout; conditions: human PBMCs, ODN-2216 3 μM, 6 hours; Table 26; read-out: TLR-9 EC50
T2 construct: lymphocytes, monocytes and dendritic cells that express TLR7, TLR8 and TLR9; endogenous in cells; host or cells: human PBMCs from healthy donors
T2 sequence (Q9NR96 26-1032): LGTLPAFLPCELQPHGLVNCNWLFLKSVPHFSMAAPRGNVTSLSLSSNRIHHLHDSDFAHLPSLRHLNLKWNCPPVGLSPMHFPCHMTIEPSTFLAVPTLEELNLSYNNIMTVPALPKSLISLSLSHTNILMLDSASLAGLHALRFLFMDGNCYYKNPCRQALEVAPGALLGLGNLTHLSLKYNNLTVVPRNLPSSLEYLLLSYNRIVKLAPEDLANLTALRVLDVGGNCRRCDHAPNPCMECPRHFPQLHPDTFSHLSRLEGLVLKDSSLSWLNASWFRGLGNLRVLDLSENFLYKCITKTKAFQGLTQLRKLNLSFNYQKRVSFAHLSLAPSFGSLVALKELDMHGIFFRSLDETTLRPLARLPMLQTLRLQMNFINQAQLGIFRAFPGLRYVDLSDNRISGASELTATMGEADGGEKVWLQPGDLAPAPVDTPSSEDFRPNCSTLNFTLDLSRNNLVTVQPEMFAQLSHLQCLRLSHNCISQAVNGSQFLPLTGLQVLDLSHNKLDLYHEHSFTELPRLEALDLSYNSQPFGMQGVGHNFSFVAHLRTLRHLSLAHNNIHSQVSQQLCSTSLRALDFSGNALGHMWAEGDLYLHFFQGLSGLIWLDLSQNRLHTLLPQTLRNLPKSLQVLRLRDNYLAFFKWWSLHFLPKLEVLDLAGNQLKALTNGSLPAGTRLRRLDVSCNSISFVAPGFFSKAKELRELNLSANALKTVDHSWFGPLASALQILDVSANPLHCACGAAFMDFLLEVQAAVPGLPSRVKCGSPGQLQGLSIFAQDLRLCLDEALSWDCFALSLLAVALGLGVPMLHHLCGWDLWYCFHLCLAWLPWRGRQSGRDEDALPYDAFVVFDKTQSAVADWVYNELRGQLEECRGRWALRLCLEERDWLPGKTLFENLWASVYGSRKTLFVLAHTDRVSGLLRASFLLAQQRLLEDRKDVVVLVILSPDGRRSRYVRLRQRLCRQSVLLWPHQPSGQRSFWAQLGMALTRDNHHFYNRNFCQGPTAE
Method in brief: as §1

Compound	EC50 (TLR7)	EC50 (TLR9)
Cc1cc(-c2[nH]c3cc(-c4ccnc(N5CCOCC5)c4)ccc3c2C)cc(C)n1 [Example 59, 4-(4-(2-(2,6-dimethylpyridin-4-yl)-3-methyl-1H-indol-6-yl)pyridin-2-yl)morpholine]	809 nM	1780 nM
Cc1cc(-c2[nH]c3cc(-c4cnn(C5CCNC5)c4)ccc3c2C)cc(C)n1 (stereo not drawn) [Example 17]	124 nM	73.6 nM
Cc1cc(-c2[nH]c3cc(-c4ccc(N5CCNCC5)nc4)ccc3c2C)ccn1 [Example 73, 3-methyl-2-(2-methylpyridin-4-yl)-6-(6-(piperazin-1-yl)pyridin-3-yl)-1H-indole]	33.3 nM	102 nM
Cc1cc(-c2[nH]c3cc(-c4ccc(N5CCCNCC5)nc4)ccc3c2C)cc(C)n1 [Example 103, 6-(6-(1,4-diazepan-1-yl)pyridin-3-yl)-2-(2,6-dimethylpyridin-4-yl)-3-methyl-1H-indole]	35.1 nM	45.7 nM
Cc1cc(-c2[nH]c3cc(-c4ccnc(N(C)C)c4)ccc3c2C)cc(C)n1 [Example 61]	886 nM	601 nM
Cc1cc(-c2[nH]c3cc(-c4ccc(N5CCNCC5)nc4)ccc3c2C)c(C)cn1 [Example 74]	14.3 nM	1250 nM
Cc1cc(-c2[nH]c3cc(-c4ccc(N5CCNCC5)nc4)ccc3c2C)cc(N)n1 [Example 78]	33.1 nM	121 nM
Cc1cc(-c2[nH]c3cc(-c4ccc(N5CCNCC5)nc4C)ccc3c2C)cc(C)n1 [Example 4]	26.1 nM	153 nM
COc1ccc(-c2[nH]c3cc(-c4ccc(N5CCNCC5)nc4)ccc3c2C)cc1OC [Example 81]	34.4 nM	758 nM
Cc1c(-c2cn(C)c(=O)n(C)c2=O)[nH]c2cc(-c3ccc(N4CCNCC4)nc3)ccc12 [Example 91]	104 nM	540 nM
Cc1cc(-c2[nH]c3cc(-c4ccc5c(c4)CNCC5)ccc3c2C)cc(C)n1 [Example 14]	213 nM	108 nM
Cc1cc(-c2[nH]c3cc(-c4ccc(N5C[C@H]6CC[C@@H](C5)[C@@H]6N)nc4)ccc3c2C)cc(C)n1 [Example 28]	63 nM	69.9 nM
Cc1cc(-c2[nH]c3cc(-c4ccc(NC5CCNCC5)nc4)ccc3c2C)cc(C)n1 [Example 24]	8.3 nM	89.6 nM
Cc1cc(-c2[nH]c3cc(-c4ccc(N5CCNCC5)nc4)ccc3c2C)c2cccnc2n1 [Example 99]	1.8 nM	548 nM
Cc1cc(-c2[nH]c3cc(-c4ccn5ccnc5c4)ccc3c2C)cc(C)n1 [Example 57]	200 nM	306 nM
Cc1c(-c2cnn3c2CCC3)[nH]c2cc(-c3ccc(N4CCNCC4)nc3)ccc12 [Example 89]	> 1000 nM	428 nM
Cc1c(-c2cnn(C)c2)[nH]c2cc(-c3ccc(N4CCNCC4)nc3)ccc12 [Example 87]	2180 nM	583 nM
Cc1cc(-c2[nH]c3cc(-c4ccc(N5CCNCC5)nc4)ccc3c2C)cnn1 [Example 76]	63 nM	421 nM
Cc1cc(-c2[nH]c3cc(-c4cnn(CCN)c4)ccc3c2C)cc(C)n1 [Example 16]	254 nM	275 nM
Cc1c(-c2cnc(C(F)(F)F)nc2)[nH]c2cc(-c3ccc(N4CCNCC4)nc3)ccc12 [Example 83]	778 nM	756 nM

Continued, values first:

EC50 (TLR7)	EC50 (TLR9)	Compound
226 nM	87.2 nM	Cc1cc(-c2[nH]c3cc(-c4cccc(C(=O)N5CCC(N)CC5)c4)ccc3c2C)cc(C)n1 [Example 122]
59.6 nM	47.1 nM	Cc1cc(-c2[nH]c3cc(-c4ccc5c(n4)CCNC5)ccc3c2C)cc(C)n1 [Example 182]
98.9 nM	74.7 nM	Cc1cc(-c2[nH]c3cc(-c4cccc(C(=O)N5CCN6CCC5C6)c4)ccc3c2C)cc(C)n1 (stereo not drawn) [Example 127]
32.2 nM	63.6 nM	Cc1cc(-c2[nH]c3cc(-c4ccc(N5CCN(C(=O)[C@@H]6COCCN6)CC5)nc4)ccc3c2C)cc(C)n1 [Example 110]
1260 nM	188 nM	Cc1cc(-c2[nH]c3cc(-c4ccc(N5CCNCC5)nc4)cnc3c2C)cc(C)n1 [Example 149, 2-(2,6-dimethyl-4-pyridyl)-3-methyl-6-(6-piperazin-1-yl-3-pyridyl)-1H-pyrrolo[3,2-b]pyridine]
334 nM	211 nM	Cc1cc(-c2[nH]c3cc(C(=O)N[C@H]4CCCNC4)ccc3c2C)cc(C)n1 [Example 179]
108 nM	1580 nM	Cc1c(-c2cc(C)c3ncnn3c2)[nH]c2nc(C3CCNCC3)ccc12 [Example 153]
152 nM	89.5 nM	Cc1cc(-c2[nH]c3cc(-c4ccc(C(=O)N5CC[C@H](N)C5)cc4)ccc3c2C)cc(C)n1 [Example 120, (S)-(3-aminopyrrolidin-1-yl)(4-(2-(2,6-dimethylpyridin-4-yl)-3-methyl-1H-indol-6-yl)phenyl)methanone]
> 1000 nM	727 nM	Cc1cc(-c2[nH]c3cc(-c4ccc(N5CCN6CC(F)(F)C[C@H]6C5)nc4)ccc3c2C)cc(C)n1 [Example 144]
30.7 nM	566 nM	Cc1cc(-c2[nH]c3cc(-c4ccc5nc([C@@H]6CCCNC6)[nH]c5c4)ccc3c2C)cc(C)n1 [Example 160]
72.3 nM	69.4 nM	COCCN1CCN(c2ccc(-c3ccc4c(C)c(-c5cc(C)nc(C)c5)[nH]c4c3)cn2)CC1 [Example 117]
760 nM	72.3 nM	Cc1cc(-c2[nH]c3nc(-c4ccc(N5CCNCC5)nc4)ccc3c2C)cc(C)n1 [Example 150]
16.9 nM	268 nM	Cc1cc(-c2[nH]c3cc(-c4cnn(C5CC6CCC(C5)N6)c4)ccc3c2C)cc(C)n1 (stereo not drawn) [Example 184]
> 1000 nM	120 nM	Cc1cc(-c2[nH]c3cc(-c4ccc(N5CCN(CC(F)F)CC5)nc4)ccc3c2C)cc(C)n1 [Example 141, 6-(6-(4-(2,2-difluoroethyl)piperazin-1-yl)pyridin-3-yl)-2-(2,6-dimethylpyridin-4-yl)-3-methyl-1H-indole]
17.9 nM	14.6 nM	Cc1cc(-c2[nH]c3cc(-c4ccc(N5CCC(NCCO)CC5)nc4)ccc3c2C)cc(C)n1 [Example 131, 2-((1-(5-(2-(2,6-dimethylpyridin-4-yl)-3-methyl-1H-indol-6-yl)pyridin-2-yl)piperidin-4-yl)amino)ethan-1-ol]
415 nM	288 nM	Cc1cc(-c2[nH]c3cc(-c4ccc(N5CCN(C(=O)[C@@H]6CC(F)(F)CN6)CC5)nc4)ccc3c2C)cc(C)n1 [Example 138]
